Columns and labels:
[1] = (§1) The drug is tested on Z-028 corresponding to mouse gut metagenome with ENA study accession number: PRJEB37062 and ENA sample accession number: ERS12561827 for biotransformation under anaerobic condition. The drug concentrations were measured over 9 timepoints collected between 0 and 24 hours of incubation by liquid-chromatography-coupled mass spectrometry (LC–MS); conditions: 2 µM
[2] = as §1, with “Z-023” for “Z-028”, “to” for “to mouse gut”, “ERS12561822” for “ERS12561827”; conditions: 2 µM
[3] = as §1, with “Z-021” for “Z-028”, “to” for “to mouse gut”, “ERS12561820” for “ERS12561827”; conditions: 2 µM
[4] = as §1, with “Z-018” for “Z-028”, “pig” for “mouse”, “ERS12561817” for “ERS12561827”; conditions: 2 µM
[5] = as §1, with “Z-013” for “Z-028”, “rabbit” for “mouse”, “ERS12561813” for “ERS12561827”; conditions: 2 µM
[6] = as §1, with “Z-010” for “Z-028”, “to” for “to mouse gut”, “ERS12561810” for “ERS12561827”; conditions: 2 µM
[7] = as §1, with “Z-006” for “Z-028”, “ERS12561806” for “ERS12561827”; conditions: 2 µM
[8] = as §1, with “Z-005” for “Z-028”, “to” for “to mouse gut”, “ERS12561805” for “ERS12561827”; conditions: 2 µM
[9] = as §1, with “WLS-370” for “Z-028”, “human” for “mouse”, “ERS12561793” for “ERS12561827”; conditions: 2 µM
[10] = as §1, with “WLS-170” for “Z-028”, “human” for “mouse”, “ERS12561762” for “ERS12561827”; conditions: 2 µM
[11] = as §1, with “WLS-098” for “Z-028”, “human” for “mouse”, “ERS12561754” for “ERS12561827”; conditions: 2 µM
[12] = as §1, with “WLS-086” for “Z-028”, “human” for “mouse”, “ERS12561752” for “ERS12561827”; conditions: 2 µM
[13] = as §1, with “WLS-082” for “Z-028”, “human” for “mouse”, “ERS12561751” for “ERS12561827”; conditions: 2 µM
[14] = as §1, with “WLS-010” for “Z-028”, “human” for “mouse”, “ERS12561743” for “ERS12561827”; conditions: 2 µM
[15] = human gut metagenome, 24 h, 2 µM
[16] = human gut metagenome, 24 h, 2 µM; remark: listed apart in the source
[17] = human gut metagenome, 24 h, 2 µM; remark: listed apart in the source
[18] = human gut metagenome, 24 h, 2 µM; remark: listed apart in the source
[19] = human gut metagenome, 24 h, 2 µM; remark: listed apart in the source
[20] = human gut metagenome, 24 h, 2 µM; remark: listed apart in the source
Note: call rule not given here.

| SMILES | Bacterial Biotransformation [1] | Bacterial Biotransformation [2] | Bacterial Biotransformation [3] | Bacterial Biotransformation [4] | Bacterial Biotransformation [5] | Bacterial Biotransformation [6] | Bacterial Biotransformation [7] | Bacterial Biotransformation [8] | Bacterial Biotransformation [9] | Bacterial Biotransformation [10] | Bacterial Biotransformation [11] | Bacterial Biotransformation [12] | Bacterial Biotransformation [13] | Bacterial Biotransformation [14] | Bacterial Biotransformation [15] | Bacterial Biotransformation [16] | Bacterial Biotransformation [17] | Bacterial Biotransformation [18] | Bacterial Biotransformation [19] | Bacterial Biotransformation [20] |
| --- | --- | --- | --- | --- | --- | --- | --- | --- | --- | --- | --- | --- | --- | --- | --- | --- | --- | --- | --- | --- |
| COC(=O)C(c1ccccc1)C1CCCCN1 (stereo not given) [METHYLPHENIDATE] | Compound NOT metabolized | Compound metabolized | Compound metabolized | Compound metabolized | Compound NOT metabolized | Compound NOT metabolized | Compound NOT metabolized | Compound NOT metabolized | Compound NOT metabolized | Compound metabolized | Compound NOT metabolized | Compound NOT metabolized | Compound NOT metabolized | Compound NOT metabolized | Compound metabolized | Compound metabolized | Compound metabolized | Compound NOT metabolized | Compound NOT metabolized | Compound NOT metabolized |
| CN1CCN2c3ccccc3Cc3ccccc3C2C1 (stereo not given) [MIANSERIN] | Compound NOT metabolized | Compound NOT metabolized | Compound metabolized | Compound metabolized | Compound NOT metabolized | Compound metabolized | Compound NOT metabolized | Compound NOT metabolized | Compound NOT metabolized | Compound metabolized | Compound metabolized | Compound metabolized | Compound NOT metabolized | Compound NOT metabolized | Compound metabolized | Compound metabolized | Compound NOT metabolized | Compound NOT metabolized | Compound NOT metabolized | Compound metabolized |
| CC#C[C@]1(O)CC[C@H]2[C@@H]3CCC4=CC(=O)CCC4=C3[C@@H](c3ccc(N(C)C)cc3)C[C@@]21C [MIFEPRISTONE] | Compound NOT metabolized | Compound NOT metabolized | Compound NOT metabolized | Compound metabolized | Compound metabolized | Compound metabolized | Compound metabolized | Compound metabolized | Compound NOT metabolized | Compound metabolized | Compound NOT metabolized | Compound metabolized | Compound metabolized | Compound metabolized | Compound metabolized | Compound metabolized | Compound NOT metabolized | Compound NOT metabolized | Compound NOT metabolized | Compound metabolized |
| CC(C)(C)NCC(O)COc1cccc2c1CC(O)C(O)C2 (stereo not given) [NADOLOL] | Compound NOT metabolized | Compound NOT metabolized | Compound NOT metabolized | Compound NOT metabolized | Compound NOT metabolized | Compound metabolized | Compound NOT metabolized | Compound NOT metabolized | Compound NOT metabolized | Compound metabolized | Compound metabolized | Compound metabolized | Compound NOT metabolized | Compound NOT metabolized | Compound NOT metabolized | Compound metabolized | Compound metabolized | Compound NOT metabolized | Compound NOT metabolized | Compound metabolized |
| CC(C)[C@H]1CC[C@H](C(=O)N[C@H](Cc2ccccc2)C(=O)O)CC1 [NATEGLINIDE] | Compound NOT metabolized | Compound metabolized | Compound metabolized | Compound metabolized | Compound metabolized | Compound metabolized | Compound NOT metabolized | Compound NOT metabolized | Compound metabolized | Compound metabolized | Compound metabolized | Compound metabolized | Compound metabolized | Compound metabolized | Compound metabolized | Compound metabolized | Compound metabolized | Compound metabolized | Compound NOT metabolized | Compound metabolized |
| CN(C)C(=O)Oc1cccc([N+](C)(C)C)c1.[Br-] [NEOSTIGMINE BROMIDE] | Compound NOT metabolized | Compound NOT metabolized | Compound NOT metabolized | Compound NOT metabolized | Compound NOT metabolized | Compound NOT metabolized | Compound NOT metabolized | Compound NOT metabolized | Compound NOT metabolized | Compound NOT metabolized | Compound NOT metabolized | Compound NOT metabolized | Compound NOT metabolized | Compound NOT metabolized | Compound NOT metabolized | Compound NOT metabolized | Compound NOT metabolized | Compound NOT metabolized | Compound NOT metabolized | Compound NOT metabolized |
| Cc1ccccc1C(OCCN(C)C)c1ccccc1.O=C(O)CC(O)(CC(=O)O)C(=O)O (stereo not given) [ORPHENADRINE CITRATE] | Compound NOT metabolized | Compound metabolized | Compound metabolized | Compound metabolized | Compound NOT metabolized | Compound NOT metabolized | Compound NOT metabolized | Compound NOT metabolized | Compound NOT metabolized | Compound metabolized | Compound NOT metabolized | Compound NOT metabolized | Compound NOT metabolized | Compound metabolized | Compound metabolized | Compound NOT metabolized | Compound NOT metabolized | Compound NOT metabolized | Compound NOT metabolized | Compound metabolized |
| CC(=O)CCCCn1c(=O)c2c(ncn2C)n(C)c1=O [PENTOXIFYLLINE] | Compound NOT metabolized | Compound NOT metabolized | Compound NOT metabolized | Compound NOT metabolized | Compound NOT metabolized | Compound NOT metabolized | Compound NOT metabolized | Compound NOT metabolized | Compound NOT metabolized | Compound metabolized | Compound metabolized | Compound metabolized | Compound NOT metabolized | Compound NOT metabolized | Compound NOT metabolized | Compound metabolized | Compound NOT metabolized | Compound NOT metabolized | Compound NOT metabolized | Compound metabolized |

— ChEMBL document CHEMBL5724914, “Linking interpersonal differences in gut microbiota composition and drug biotransformation activity” (2024)
